Measurements from the supplement of paper PMC13380429.

Tests used:
Details in all cases: 72 h
Caco-2 [1] = assay: relative viability EC50 (midpoint between 100% and the lowest measured viability); higher = less toxic
Vero E6 [2] = assay: as above
Calu-3 [3] = assay: as above
HepG2 [4] = assay: as above
Caco-2 [5] = assay: drug sensitivity score (DSS) for viability; higher = more toxic; extreme values may be limits of the assay
Vero E6 [6] = assay: as above
Calu-3 [7] = assay: as above
HepG2 [8] = assay: as above
Caco-2 [9] = assay: cell viability relative to DMSO; higher = less toxic
Vero E6 [10] = assay: as above
Calu-3 [11] = assay: as above
HepG2 [12] = assay: as above
U2OS [13] = assay: drug sensitivity score (DSS) for viability; higher = more toxic; extreme values may be limits of the assay
U2OS [14] = assay: cell viability relative to DMSO; higher = less toxic

SMILES | relative viability EC50 (Caco-2 [1]) [µM] | relative viability EC50 (Vero E6 [2]) [µM] | relative viability EC50 (Calu-3 [3]) [µM] | relative viability EC50 (HepG2 [4]) [µM] | drug sensitivity score (Caco-2 [5]) | drug sensitivity score (Vero E6 [6]) | drug sensitivity score (Calu-3 [7]) | drug sensitivity score (HepG2 [8]) | cell viability (Caco-2 [9]; 1 nM) [%] | cell viability (Caco-2 [9]; 10 nM) [%] | cell viability (Caco-2 [9]; 100 nM) [%] | cell viability (Caco-2 [9]; 1000 nM) [%] | cell viability (Caco-2 [9]; 10000 nM) [%] | cell viability (Vero E6 [10]; 1 nM) [%] | cell viability (Vero E6 [10]; 10 nM) [%] | cell viability (Vero E6 [10]; 100 nM) [%] | cell viability (Vero E6 [10]; 1000 nM) [%] | cell viability (Vero E6 [10]; 10000 nM) [%] | cell viability (Calu-3 [11]; 1 nM) [%] | cell viability (Calu-3 [11]; 10 nM) [%] | cell viability (Calu-3 [11]; 100 nM) [%] | cell viability (Calu-3 [11]; 1000 nM) [%] | cell viability (Calu-3 [11]; 10000 nM) [%] | cell viability (HepG2 [12]; 1 nM) [%] | cell viability (HepG2 [12]; 10 nM) [%] | cell viability (HepG2 [12]; 100 nM) [%] | cell viability (HepG2 [12]; 1000 nM) [%] | cell viability (HepG2 [12]; 10000 nM) [%] | drug sensitivity score (U2OS [13]) | cell viability (U2OS [14]; 1 nM) [%] | cell viability (U2OS [14]; 10 nM) [%] | cell viability (U2OS [14]; 100 nM) [%] | cell viability (U2OS [14]; 1000 nM) [%] | cell viability (U2OS [14]; 10000 nM) [%]
CC(C)(C)c1ccc(CN(Cc2cccc(OCC(=O)O)c2)S(=O)(=O)c2cccnc2)cc1 [evatanepag] | > 10 | > 10 | > 10 | > 10 | 0 | 0 | 0 | 0 | 98.5 | 97.8 | 101 | 102 | 101 | 108 | 104 | 102 | 97.4 | 93.5 | 110 | 101 | 94.2 | 99.7 | 94.9 | 99.1 | 108 | 91.7 | 94.3 | 93.6 |  |  |  |  |  | 
N#Cc1ccc(Cn2cncc2CN2CCN(c3cccc(Cl)c3)C(=O)C2)cc1 | > 10 | > 10 |  | 2.09 | 0.3 | 0.2 | 2.1 | 3.8 | 102 | 106 | 107 | 97.2 | 87 | 107 | 102 | 95.4 | 99.9 | 85.5 | 104 | 88.2 | 87.1 | 96.4 | 67.5 | 108 | 100 | 107 | 93.3 | 49.9 | 1.5 | 96.1 | 104 | 98.4 | 99.2 | 68.7
COC(=O)[C@@H]1[C@H]2C[C@H]3c4[nH]c5ccccc5c4CCN3C[C@@H]2CC[C@@H]1O [yohimbine] |  | > 10 | > 10 | > 10 |  | 0 | 0 | 0.3 |  |  |  |  |  | 110 | 105 | 101 | 101 | 98.6 | 103 | 100 | 113 | 108 | 96.9 | 110 | 113 | 110 | 94.5 | 87.4 |  |  |  |  |  | 
N[C@@H](CS)C(=O)O [L-cysteine] |  |  |  |  |  | 0 | 0 | 0.2 |  |  |  |  |  |  |  |  |  |  |  |  |  |  |  |  |  |  |  |  | 0 |  |  |  |  | 
COc1c(O[C@@H]2O[C@H](CO)[C@@H](O)[C@H](O)[C@H]2O)cc2c(c1OC)-c1ccc(SC)c(=O)cc1[C@@H](NC(C)=O)CC2 [thiocolchicoside] | > 10 | > 10 | > 10 | > 10 | 0 | 0 | 0 | 0 | 96.1 | 96.4 | 82.7 | 102 | 94.5 | 102 | 104 | 99.1 | 106 | 103 | 102 | 93.2 | 98.7 | 102 | 97.8 | 97 | 100 | 91.4 | 97.2 | 90.9 |  |  |  |  |  | 
